From patent US20100179127A1, “PYRIMIDINE DERIVATIVES” (priority 2005, published 2010)
Where a name gives a salt, the structure may show the parent alone.

Experiments:
[1] = target: T1, human GABA-B1b/rat GABA-B2 (UniProt O88871+Q9UBS5); assay: GTPγ[35S] binding, enhancement of GABA-induced binding; type: biochemical; conditions: relative to basal activity
T1 construct: expressed in transfected cells; host or cells: CHO-K1 cell line (membranes)
Description: In the functional GTP(γ)^35S assay (Lorenzen A, Fuss M, Vogt H, Schwabe U. Measurement of guanine nucleotide-binding protein activation by A1 adenosine receptor agonists in bovine brain membranes. Stimulation of guanosine-5′-O-(3-[^35S]thio)triphosphate binding. Mol. Pharmacol. 1993; 44:115-123) the agents of the invention enhance the GABA-induced GTP( ? )^35S binding at recombinant GABAB receptors with EC50 values of about 0.1 μM to about 50 μM.
GTPγ[^35S] binding. The assay mixtures contained 10 μg f membranes from a human GABA-B1b/rat GABA-B2 expressing CHO-K1 cell line in 50 mM Tris-HCl buffer, pH 7.7; 10 mM MgCl2; 1.8 mM CaCl2; 100 mM NaCl 30 μM guanosine 5′-diphosphate (30 μM; Sigma), 0.2 nM [^35S]GTP(γ)S, and test compounds (Urwyler et al, 2001). 96-well Packard Pico-plates (300 μl volume) were used. Non-specific binding was measured in the presence of unlabelled GTP(γ)S (10 μM, Sigma). The reagents were incubated for 40 min at room temperature and subsequently filtered (Packard unifilter-GF/C). After two washes with assay buffer as above the plates were dried for one hour at 50° C., 50 μl of scintillation solution (Microscint) was added and the radioactivity counted. For data analysis, non-specific binding was subtracted from all the other values; the compound effects were expressed relative to basal activity. Prism 3.0 software (Graph Pad software, San Diego, Calif.) was used for all data calculations. (Urwyler S, Mosbacher J, Lingenhoehl K, Heid J, Hofstetter K, Froestl W, Bettler B, Kaupmann K. Mol. Pharmacol. 2001, 60:963-71).

T1 sequence (Q9UBS5 1-844 isoform Q9UBS5-2): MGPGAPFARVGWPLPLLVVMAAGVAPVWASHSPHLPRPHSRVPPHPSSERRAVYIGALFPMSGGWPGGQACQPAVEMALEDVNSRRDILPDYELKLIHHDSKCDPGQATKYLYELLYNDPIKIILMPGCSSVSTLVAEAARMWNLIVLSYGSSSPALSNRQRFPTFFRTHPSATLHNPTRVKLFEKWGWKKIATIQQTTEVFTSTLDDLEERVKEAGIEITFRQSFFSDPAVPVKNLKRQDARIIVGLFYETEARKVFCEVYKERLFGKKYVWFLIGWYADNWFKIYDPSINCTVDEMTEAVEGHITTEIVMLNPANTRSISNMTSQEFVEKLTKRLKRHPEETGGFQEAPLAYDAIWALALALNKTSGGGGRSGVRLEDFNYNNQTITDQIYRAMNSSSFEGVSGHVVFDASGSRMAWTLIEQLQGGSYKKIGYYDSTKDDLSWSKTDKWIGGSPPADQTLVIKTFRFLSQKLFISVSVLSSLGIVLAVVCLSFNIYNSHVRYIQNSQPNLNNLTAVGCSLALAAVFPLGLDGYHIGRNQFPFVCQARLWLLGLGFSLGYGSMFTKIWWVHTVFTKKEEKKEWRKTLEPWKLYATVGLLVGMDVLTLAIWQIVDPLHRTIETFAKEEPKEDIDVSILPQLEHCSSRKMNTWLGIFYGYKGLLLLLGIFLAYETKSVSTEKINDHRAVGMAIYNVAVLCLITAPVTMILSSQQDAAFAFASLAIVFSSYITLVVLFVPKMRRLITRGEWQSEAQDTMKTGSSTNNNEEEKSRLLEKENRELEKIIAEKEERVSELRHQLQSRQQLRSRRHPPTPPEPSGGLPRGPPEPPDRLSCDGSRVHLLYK
T1 sequence (O88871 41-940): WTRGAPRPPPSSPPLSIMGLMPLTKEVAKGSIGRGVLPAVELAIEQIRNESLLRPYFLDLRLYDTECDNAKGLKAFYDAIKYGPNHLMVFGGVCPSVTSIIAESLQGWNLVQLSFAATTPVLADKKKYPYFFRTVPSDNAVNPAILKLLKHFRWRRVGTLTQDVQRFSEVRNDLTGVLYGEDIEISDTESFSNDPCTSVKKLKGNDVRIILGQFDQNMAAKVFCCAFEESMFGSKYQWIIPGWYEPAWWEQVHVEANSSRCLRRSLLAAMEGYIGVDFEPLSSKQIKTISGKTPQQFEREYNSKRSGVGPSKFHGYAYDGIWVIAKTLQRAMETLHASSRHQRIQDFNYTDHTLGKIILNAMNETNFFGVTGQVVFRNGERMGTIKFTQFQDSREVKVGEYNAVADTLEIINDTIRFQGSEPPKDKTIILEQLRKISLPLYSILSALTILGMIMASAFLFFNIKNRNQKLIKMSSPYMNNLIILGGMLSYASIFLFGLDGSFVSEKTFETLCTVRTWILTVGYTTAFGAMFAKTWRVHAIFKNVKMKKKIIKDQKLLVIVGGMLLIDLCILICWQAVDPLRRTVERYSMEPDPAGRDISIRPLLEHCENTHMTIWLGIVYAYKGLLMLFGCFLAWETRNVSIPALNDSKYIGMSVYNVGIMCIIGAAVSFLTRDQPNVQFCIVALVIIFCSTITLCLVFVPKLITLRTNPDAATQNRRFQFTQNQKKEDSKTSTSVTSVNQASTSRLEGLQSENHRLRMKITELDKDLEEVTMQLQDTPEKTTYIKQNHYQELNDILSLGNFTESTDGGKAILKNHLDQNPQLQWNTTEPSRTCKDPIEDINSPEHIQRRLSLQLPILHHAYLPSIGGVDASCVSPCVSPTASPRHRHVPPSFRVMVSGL

melting point [°C] | SMILES | also measured
95 to 98 | Cc1cccc(-c2c(NC3CCCC3)nc(C)nc2NC2CCCC2)c1 [Example 22, 5-(3-methylphenyl)-N,N′-dicyclopentyl-2-methylpyrimidine-4,6-diamine] | 
80 to 84 | Cc1ncc(-c2ccccc2C(F)(F)F)c(NC2CCCC2)n1 [Example 44, N-cyclopentyl-2-methyl-5-[2-(trifluoromethyl)phenyl]pyrimidin-4-amine] | 
185 to 188 | Cc1ncc(-c2ccc([N+](=O)[O-])cc2)c(NC2CCCC2)n1 [Example 33, N-cyclopentyl-2-methyl-5-(4-nitrophenyl)pyrimidin-4-amine] | 
176 to 180 | Cc1ncc(-c2ccc(C#N)cc2)c(NC2CCCC2)n1 [Example 36, 4-[4-(cyclopentylamino)-2-methylpyrimidin-5-yl]benzonitrile] | 
165 to 167 | Cc1ncc(-c2ccc3nonc3c2)c(NC2CCCC2)n1 [Example 49, 5-(2,1,3-benzoxadiazol-5-yl)-N-cyclopentyl-2-methylpyrimidin-4-amine] | 
252 to 255 | Cc1ncc(-c2ccc(C(=O)O)cc2)c(NC2CCCC2)n1 [Example 27, 4-[4-(cyclopentylamino)-2-methylpyrimidin-5-yl]benzoic acid] | 
105 to 108 | Cc1ncc(-c2cccc(C(F)(F)F)c2)c(NC2CCCC2)n1 [Example 29, N-cyclopentyl-2-methyl-5-[3-(trifluoromethyl)phenyl]pyrimidin-4-amine] | 
249 to 254 | Cc1ncc(-c2cnc(C(F)(F)F)nc2)c(NC2CCCC2)n1 (as salt: hydrochloride) [Example 54, N-cyclopentyl-2-methyl-2′-(trifluoromethyl)-5,5′-bipyrimidin-4-amine hydrochloride] | 
133 to 134 | Cc1ncc2c3ccc(C(F)(F)F)cc3n(C3CCCC3)c2n1 [Example 48, 9-cyclopentyl-2-methyl-7-(trifluoromethyl)-9H-pyrimido[4,5-b]indole] | 
137 to 141 | Cc1ncc2c3ccc(C(F)(F)F)cc3c(=O)n(C3CCCC3)c2n1 [Example 53, 5-cyclopentyl-3-methyl-8-(trifluoromethyl)pyrimido[4,5-c]-isoquinolin-6(5H)-one] | 
90 to 93 | Cc1ncc(C#Cc2ccc(C(F)(F)F)cc2)c(NC2CCCC2)n1 [Example 55, N-cyclopentyl-2-methyl-5-{[4-(trifluoromethyl)phenyl]ethynyl}-pyrimidin-4-amine] | 
103 to 106 | Cc1ncc(-c2ccc(Cl)cc2)c(NC2CCCC2)n1 | 
191 to 196 | Cc1ncc(-c2ccc(C(F)(F)F)cc2)c(NC2CCCCNC2=O)n1 (centres unmarked) [Example 62, 3-[2-Methyl-5-(4-trifluoromethyl-phenyl)-pyrimidin-4-ylamino]-azepan-2-one] | Biological activity (%) ([1]; 1 μM of GABA, 2.5 μM of Cpd): 77%; Biological activity (%) ([1]; 1 μM of GABA, 25 μM of Cpd): 129%; Biological activity (%) ([1]; 20 μM of GABA, 2.5 μM of Cpd): 159%; Biological activity (%) ([1]; 20 μM of GABA, 25 μM of Cpd): 192%
226 to 228 | Cc1ncc(-c2ccc(C(N)=O)cc2)c(NC2CCCC2)n1 [Example 32, 4-[4-(cyclopentylamino)-2-methylpyrimidin-5-yl]benzamide] | 
159 to 162 | C#Cc1nc(C)nc(NC2CCCC2)c1-c1ccc(C(F)(F)F)cc1 [Example 50, N-cyclopentyl-6-ethynyl-2-methyl-5-[4-(trifluoromethyl)phenyl]pyrimidin-4-amine] | 
128 to 132 | Cc1ncc(-c2ccc(C(F)(F)F)cc2C(F)(F)F)c(NC2CCCC2)n1 [Example 41, 5-[2,4-bis(trifluoromethyl)phenyl]-N-cyclopentyl-2-methylpyrimidin-4-amine] | 
83 to 86 | Cc1ncc(-c2ccc(F)cc2)c(NC2CCCC2)n1 [Example 39, N-cyclopentyl-5-(4-fluorophenyl)-2-methylpyrimidin-4-amine] | 
124 to 126 | Cc1ncc(-c2cc(C(F)(F)F)cc(C(F)(F)F)c2)c(NC2CCCC2)n1 [Example 30, 5-[3,5-bis(trifluoromethyl)phenyl]-N-cyclopentyl-2-methylpyrimidin-4-amine] | 
130 to 133 | Cc1ncc(-c2ccc(C(F)(F)F)cn2)c(NC2CCCC2)n1 [Example 47, Cyclopentyl-[2-methyl-5-(5-trifluoromethyl-pyridin-2-yl)-pyrimidin-4-yl]-amine] | 
203 to 210 | CC(=O)Nc1ccc(-c2cnc(C)nc2NC2CCCC2)cc1 [Example 46, N-{4-[4-(cyclopentylamino)-2-methylpyrimidin-5-yl]phenyl}acetamide] | 
143 to 145 | COc1ccc(-c2cnc(C)nc2NC2CCCC2)cc1OC [Example 31, N-cyclopentyl-5-(3,4-dimethoxyphenyl)-2-methylpyrimidin-4-amine] | 
115 to 128 | Cc1ccc(-c2c(NC3CCCC3)nc(C)nc2NC2CCCC2)cc1 [Example 20, 5-(4-methylphenyl)-N,N′-dicyclopentyl-2-methylpyrimidine-4,6-diamine] | 
254 to 259 | Cc1ncc(-c2ccc(P(=O)(O)O)cc2)c(NC2CCCC2)n1 [Example 51, {4-[4-(cyclopentylamino)-2-methylpyrimidin-5-yl]phenyl}-phosphonic acid] | 
70 to 71 | CCc1nc(NC2CCCC2)c(-c2ccccc2)c(NC2CCCC2)n1 [Example 65, N,N′-Dicyclopentyl-2-ethyl-5-phenyl-pyrimidine-4,6-diamine] | 
120 to 132 | Cc1ncc(-c2ccc(C(F)(F)F)cc2Cl)c(NC2CCCC2)n1 [Example 45, 5-[2-chloro-4-(trifluoromethyl)phenyl]-N-cyclopentyl-2-methylpyrimidin-4-amine] | 
